“Also recorded” adds a separate entry of the source.
How the values were obtained:
OATP1B1 [1] = target: T1, OATP1B1 (Homo sapiens, UniProt Q9Y6L6); test: Uptake in HEK293 cells overexpressing OATP1B1; type: in vitro ADME; conditions: probe substrate, functionality check of OATP1B1
T1 sequence (Q9Y6L6 1-691): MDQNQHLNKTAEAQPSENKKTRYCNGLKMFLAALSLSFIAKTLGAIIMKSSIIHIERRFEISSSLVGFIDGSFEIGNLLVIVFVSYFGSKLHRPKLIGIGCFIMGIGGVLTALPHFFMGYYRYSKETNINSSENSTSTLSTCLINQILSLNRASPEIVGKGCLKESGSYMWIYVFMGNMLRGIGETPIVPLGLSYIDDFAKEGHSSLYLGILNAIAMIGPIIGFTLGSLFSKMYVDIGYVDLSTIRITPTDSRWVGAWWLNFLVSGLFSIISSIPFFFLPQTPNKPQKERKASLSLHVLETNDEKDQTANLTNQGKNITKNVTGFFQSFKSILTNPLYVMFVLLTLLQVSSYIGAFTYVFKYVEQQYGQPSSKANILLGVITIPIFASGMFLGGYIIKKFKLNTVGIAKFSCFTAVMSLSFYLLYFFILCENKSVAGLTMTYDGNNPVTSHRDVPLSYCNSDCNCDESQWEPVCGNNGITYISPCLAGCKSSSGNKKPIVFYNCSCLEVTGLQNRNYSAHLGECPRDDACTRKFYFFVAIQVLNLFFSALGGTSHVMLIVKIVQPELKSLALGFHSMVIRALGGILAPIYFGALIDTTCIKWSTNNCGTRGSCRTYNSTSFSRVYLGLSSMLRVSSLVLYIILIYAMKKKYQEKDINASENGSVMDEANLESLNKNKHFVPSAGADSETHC

BCRP = target: T2, BCRP (Homo sapiens, UniProt Q9UNQ0); test: A-to-B and B-to-A transport in LLC-PK1 cells overexpressing BCRP; type: in vitro ADME; conditions: probe substrate, LLC-PK1-BCRP compared with LLC-PK1-mock cells
T2 sequence (Q9UNQ0 1-655): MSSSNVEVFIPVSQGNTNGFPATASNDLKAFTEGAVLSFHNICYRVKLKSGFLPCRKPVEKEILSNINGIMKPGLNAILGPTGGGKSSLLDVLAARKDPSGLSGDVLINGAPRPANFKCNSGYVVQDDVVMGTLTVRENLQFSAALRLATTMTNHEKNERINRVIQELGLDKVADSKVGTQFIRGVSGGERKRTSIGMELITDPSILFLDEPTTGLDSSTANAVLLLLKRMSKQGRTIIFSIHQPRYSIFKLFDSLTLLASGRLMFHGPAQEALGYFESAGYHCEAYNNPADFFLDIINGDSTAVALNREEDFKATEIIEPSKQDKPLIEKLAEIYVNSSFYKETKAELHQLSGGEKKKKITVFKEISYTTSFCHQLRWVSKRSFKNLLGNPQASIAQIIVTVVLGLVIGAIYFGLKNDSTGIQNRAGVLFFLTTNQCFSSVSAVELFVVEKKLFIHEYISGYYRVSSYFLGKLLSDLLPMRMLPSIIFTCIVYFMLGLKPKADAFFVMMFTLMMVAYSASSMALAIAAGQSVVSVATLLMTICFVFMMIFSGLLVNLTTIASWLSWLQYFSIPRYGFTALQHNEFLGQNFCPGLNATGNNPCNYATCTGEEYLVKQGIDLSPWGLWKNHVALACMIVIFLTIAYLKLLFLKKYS

OAT3 = target: T3, OAT3 (Homo sapiens, UniProt Q8TCC7); test: Uptake in HEK293 cells overexpressing OAT3; type: in vitro ADME; conditions: probe substrate, functionality check of OAT3
T3 sequence (Q8TCC7 1-542): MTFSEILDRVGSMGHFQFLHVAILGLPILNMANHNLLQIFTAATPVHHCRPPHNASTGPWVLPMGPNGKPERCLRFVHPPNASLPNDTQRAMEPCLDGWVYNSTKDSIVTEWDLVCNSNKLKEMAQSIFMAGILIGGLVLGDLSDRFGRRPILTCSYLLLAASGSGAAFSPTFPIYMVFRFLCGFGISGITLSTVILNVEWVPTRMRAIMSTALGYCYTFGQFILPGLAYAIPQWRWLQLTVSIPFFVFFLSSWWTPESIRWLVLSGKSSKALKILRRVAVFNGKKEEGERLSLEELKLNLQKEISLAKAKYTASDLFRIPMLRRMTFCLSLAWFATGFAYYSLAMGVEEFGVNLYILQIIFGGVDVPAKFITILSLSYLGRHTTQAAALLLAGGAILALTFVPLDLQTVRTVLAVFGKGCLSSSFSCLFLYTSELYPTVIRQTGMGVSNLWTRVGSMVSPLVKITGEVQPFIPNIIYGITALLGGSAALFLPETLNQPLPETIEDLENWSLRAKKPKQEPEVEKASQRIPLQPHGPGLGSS

OATP1B3 [2] = target: T4, OATP1B3 (Homo sapiens, UniProt Q9NPD5); test: Uptake in HEK293 cells overexpressing OATP1B3; type: in vitro ADME; conditions: probe substrate, functionality check of OATP1B3
T4 sequence (Q9NPD5 1-702): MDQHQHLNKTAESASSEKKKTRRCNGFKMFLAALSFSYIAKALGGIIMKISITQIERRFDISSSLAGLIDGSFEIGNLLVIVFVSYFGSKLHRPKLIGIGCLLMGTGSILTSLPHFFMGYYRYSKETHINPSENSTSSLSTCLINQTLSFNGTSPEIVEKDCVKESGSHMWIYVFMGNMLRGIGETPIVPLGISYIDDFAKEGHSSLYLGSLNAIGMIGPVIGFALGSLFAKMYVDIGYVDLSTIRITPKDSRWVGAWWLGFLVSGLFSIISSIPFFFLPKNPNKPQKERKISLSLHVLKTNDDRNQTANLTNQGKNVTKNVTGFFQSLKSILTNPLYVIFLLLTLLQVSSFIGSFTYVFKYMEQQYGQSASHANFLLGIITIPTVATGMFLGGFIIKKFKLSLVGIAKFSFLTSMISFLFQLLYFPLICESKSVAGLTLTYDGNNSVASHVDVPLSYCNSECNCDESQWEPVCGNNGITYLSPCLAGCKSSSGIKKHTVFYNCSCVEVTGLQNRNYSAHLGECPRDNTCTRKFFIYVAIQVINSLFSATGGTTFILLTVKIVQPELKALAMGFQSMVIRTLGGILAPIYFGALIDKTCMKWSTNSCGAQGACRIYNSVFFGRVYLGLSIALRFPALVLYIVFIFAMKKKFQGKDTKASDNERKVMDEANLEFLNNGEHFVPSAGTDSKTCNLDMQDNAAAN

P-gp = P-gp (Homo sapiens, UniProt P08183); test: A-to-B and B-to-A transport in LLC-PK1 cells overexpressing P-gp; type: in vitro ADME; conditions: pig, LLC-PK1, Net efflux ratio, probe substrate, LLC-PK1-MDR1 compared with LLC-PK1-mock cells
P-gp, sequence (P08183 whole entry): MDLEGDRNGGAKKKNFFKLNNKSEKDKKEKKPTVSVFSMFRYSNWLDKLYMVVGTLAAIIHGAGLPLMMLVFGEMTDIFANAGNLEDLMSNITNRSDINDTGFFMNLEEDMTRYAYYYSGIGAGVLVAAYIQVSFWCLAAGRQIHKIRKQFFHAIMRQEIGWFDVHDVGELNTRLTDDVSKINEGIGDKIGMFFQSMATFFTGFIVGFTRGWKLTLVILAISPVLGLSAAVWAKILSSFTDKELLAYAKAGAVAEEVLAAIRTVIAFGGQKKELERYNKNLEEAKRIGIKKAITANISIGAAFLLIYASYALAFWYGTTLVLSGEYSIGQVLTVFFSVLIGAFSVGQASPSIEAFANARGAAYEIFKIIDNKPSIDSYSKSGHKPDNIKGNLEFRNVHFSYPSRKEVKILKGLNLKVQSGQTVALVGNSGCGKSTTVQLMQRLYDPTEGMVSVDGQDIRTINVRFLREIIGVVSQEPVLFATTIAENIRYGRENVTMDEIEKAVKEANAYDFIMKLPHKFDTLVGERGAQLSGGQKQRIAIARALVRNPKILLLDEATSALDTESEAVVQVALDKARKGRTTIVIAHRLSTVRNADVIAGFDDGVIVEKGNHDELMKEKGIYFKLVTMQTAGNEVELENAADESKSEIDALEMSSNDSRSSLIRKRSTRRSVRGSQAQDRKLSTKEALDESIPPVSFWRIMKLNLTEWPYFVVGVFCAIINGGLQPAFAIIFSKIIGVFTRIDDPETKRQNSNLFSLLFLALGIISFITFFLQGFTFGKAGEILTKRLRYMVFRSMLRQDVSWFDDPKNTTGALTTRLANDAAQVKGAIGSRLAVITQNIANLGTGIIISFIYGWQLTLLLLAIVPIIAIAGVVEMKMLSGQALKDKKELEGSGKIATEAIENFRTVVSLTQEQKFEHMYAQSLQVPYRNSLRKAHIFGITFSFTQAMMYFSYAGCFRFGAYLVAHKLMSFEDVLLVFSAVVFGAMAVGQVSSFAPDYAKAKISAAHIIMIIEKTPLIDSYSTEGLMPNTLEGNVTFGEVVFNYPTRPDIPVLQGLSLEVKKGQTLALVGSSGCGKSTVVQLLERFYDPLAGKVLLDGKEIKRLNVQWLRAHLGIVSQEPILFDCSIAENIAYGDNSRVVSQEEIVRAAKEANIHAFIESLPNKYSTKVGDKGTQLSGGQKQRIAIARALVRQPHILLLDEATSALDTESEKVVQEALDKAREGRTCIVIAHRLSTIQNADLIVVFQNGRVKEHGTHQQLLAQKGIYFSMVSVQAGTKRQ

OATP1B3 [3] = target: T4, OATP1B3; type: in vitro ADME; conditions: 10 μM catalposide, HEK293-OATP1B3
OATP1B1 [4] = target: T1, OATP1B1; conditions: 10 μM catalposide, HEK293-OATP1B1
OATP1B3 [5] = target: T4, OATP1B3; conditions: read-out: IC50 as inhibitor of OATP1B3; cited from earlier work
OCT2 = target: T5, OCT2 (Homo sapiens, UniProt O15244); test: Uptake in HEK293 cells overexpressing OCT2; type: in vitro ADME; conditions: probe substrate, functionality check of OCT2
T5 sequence (O15244 1-555): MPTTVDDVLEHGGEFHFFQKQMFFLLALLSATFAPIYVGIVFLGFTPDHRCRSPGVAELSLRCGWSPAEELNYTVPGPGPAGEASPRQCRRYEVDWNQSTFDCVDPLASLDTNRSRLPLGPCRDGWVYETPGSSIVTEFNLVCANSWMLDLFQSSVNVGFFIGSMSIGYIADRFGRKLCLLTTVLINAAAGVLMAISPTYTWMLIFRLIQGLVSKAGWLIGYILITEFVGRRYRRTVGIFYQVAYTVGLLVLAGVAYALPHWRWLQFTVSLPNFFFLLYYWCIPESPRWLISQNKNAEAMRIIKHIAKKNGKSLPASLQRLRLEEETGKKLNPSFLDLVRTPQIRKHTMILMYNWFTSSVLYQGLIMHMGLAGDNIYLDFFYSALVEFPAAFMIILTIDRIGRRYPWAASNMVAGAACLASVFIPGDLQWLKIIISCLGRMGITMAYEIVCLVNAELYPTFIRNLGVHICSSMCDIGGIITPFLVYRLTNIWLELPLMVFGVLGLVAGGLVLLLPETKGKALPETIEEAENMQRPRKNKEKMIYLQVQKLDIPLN

OCT1 = target: T6, OCT1 (Homo sapiens, UniProt O15245); test: Uptake in HEK293 cells overexpressing OCT1; type: in vitro ADME; conditions: probe substrate, functionality check of OCT1
T6 sequence (O15245 1-554): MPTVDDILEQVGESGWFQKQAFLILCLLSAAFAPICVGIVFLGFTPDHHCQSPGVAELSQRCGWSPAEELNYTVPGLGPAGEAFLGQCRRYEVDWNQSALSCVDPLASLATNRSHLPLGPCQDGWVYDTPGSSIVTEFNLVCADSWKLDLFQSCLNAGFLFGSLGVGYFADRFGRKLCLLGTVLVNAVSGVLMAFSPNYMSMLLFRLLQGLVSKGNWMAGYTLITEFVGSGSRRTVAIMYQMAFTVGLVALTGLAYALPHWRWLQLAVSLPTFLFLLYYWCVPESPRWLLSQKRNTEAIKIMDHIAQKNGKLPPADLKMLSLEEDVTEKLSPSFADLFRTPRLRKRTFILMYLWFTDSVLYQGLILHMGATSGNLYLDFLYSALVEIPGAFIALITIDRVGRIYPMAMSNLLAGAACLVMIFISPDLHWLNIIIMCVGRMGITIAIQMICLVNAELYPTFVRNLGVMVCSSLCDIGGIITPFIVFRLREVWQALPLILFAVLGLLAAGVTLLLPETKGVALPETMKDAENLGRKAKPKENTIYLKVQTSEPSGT

[6] = substrate: O=C(O[C@H]1[C@@H]2C=CO[C@@H](O[C@@H]3O[C@H](CO)[C@@H](O)[C@H](O)[C@H]3O)[C@@H]2[C@@]2(CO)O[C@@H]12)c1ccc(O)cc1; test: Uptake in HEK293 cells overexpressing OATP1B1; type: in vitro ADME; conditions: other: OATP1B1-mediated uptake, 2–500 μM catalposide, 5 minutes; 37.0 °C

Molecule: C[C@]12CC[C@@H]3c4ccc(OS(=O)(=O)O)cc4CC[C@H]3[C@@H]1CCC2=O [ES, estrone-3-sulfate]
- Fold increase in uptake vs HEK293 mock cells (OATP1B1 [1]): 17.3 fold
- Net efflux ratio (BCRP): 4.6
- Fold increase in uptake vs HEK293 mock cells (OAT3): 18.9 fold

Molecule: C[C@]12CC[C@@H]3c4ccc(O)cc4CC[C@H]3[C@@H]1CC[C@@H]2O[C@@H]1O[C@H](C(=O)O)[C@@H](O)[C@H](O)[C@H]1O [EG, estradiol-17β-D-glucuronide]
- Fold increase in uptake vs HEK293 mock cells (OATP1B3 [2]): 15.0 fold

Molecule: C[C@H]1O[C@@H](O[C@H]2[C@@H](O)C[C@H](O[C@H]3[C@@H](O)C[C@H](O[C@H]4CC[C@@]5(C)[C@H](CC[C@@H]6[C@@H]5C[C@@H](O)[C@]5(C)[C@@H](C7=CC(=O)OC7)CC[C@]65O)C4)O[C@@H]3C)O[C@@H]2C)C[C@H](O)[C@@H]1O [digoxin]
- efflux ratio at 1 h (P-gp): 5.7

Molecule: CO[C@H]1/C=C/O[C@@]2(C)Oc3c(C)c(O)c4c(O)c(c(/C=N/N5CCN(C)CC5)c(O)c4c3C2=O)NC(=O)/C(C)=C\C=C\[C@H](C)[C@H](O)[C@@H](C)[C@@H](O)[C@@H](C)[C@H](OC(C)=O)[C@@H]1C [rifampin]
- Effect on OATP1B3-mediated catalposide uptake (OATP1B3 [3]): decreased to basal levels; also recorded: inhibitory effects
- Effect on OATP1B1-mediated catalposide uptake (OATP1B1 [4]): decreased to basal levels; also recorded: inhibitory effects

Molecule: Cc1ccc(C)c(OCCCC(C)(C)C(=O)O)c1 [gemfibrozil]
- IC50 (OATP1B3 [5]): ~200 µM
- Effect on OATP1B3-mediated catalposide uptake (OATP1B3 [3]): decreased to basal levels; also recorded: inhibitory effects
- Effect on OATP1B1-mediated catalposide uptake (OATP1B1 [4]): decreased to basal levels; also recorded: inhibitory effects

Molecule: C[n+]1ccc(-c2ccccc2)cc1 [MPP^+, methyl-4-phenylpyridinium]
- Fold increase in uptake vs HEK293 mock cells (OCT2): 17.8 fold
- Fold increase in uptake vs HEK293 mock cells (OCT1): 13.2 fold

B1: OATP1B1 (Homo sapiens) (protein)
chain: MDQNQHLNKTAEAQPSENKKTRYCNGLKMFLAALSLSFIAKTLGAIIMKSSIIHIERRFEISSSLVGFIDGSFEIGNLLVIVFVSYFGSKLHRPKLIGIGCFIMGIGGVLTALPHFFMGYYRYSKETNINSSENSTSTLSTCLINQILSLNRASPEIVGKGCLKESGSYMWIYVFMGNMLRGIGETPIVPLGLSYIDDFAKEGHSSLYLGILNAIAMIGPIIGFTLGSLFSKMYVDIGYVDLSTIRITPTDSRWVGAWWLNFLVSGLFSIISSIPFFFLPQTPNKPQKERKASLSLHVLETNDEKDQTANLTNQGKNITKNVTGFFQSFKSILTNPLYVMFVLLTLLQVSSYIGAFTYVFKYVEQQYGQPSSKANILLGVITIPIFASGMFLGGYIIKKFKLNTVGIAKFSCFTAVMSLSFYLLYFFILCENKSVAGLTMTYDGNNPVTSHRDVPLSYCNSDCNCDESQWEPVCGNNGITYISPCLAGCKSSSGNKKPIVFYNCSCLEVTGLQNRNYSAHLGECPRDDACTRKFYFFVAIQVLNLFFSALGGTSHVMLIVKIVQPELKSLALGFHSMVIRALGGILAPIYFGALIDTTCIKWSTNNCGTRGSCRTYNSTSFSRVYLGLSSMLRVSSLVLYIILIYAMKKKYQEKDINASENGSVMDEANLESLNKNKHFVPSAGADSETHC
- Km [6]: 220.5 µM
- Vmax [6]: 7.7 pmol/min
